In series [1] the test system is stationary phase B. burgdorferi. Briefly: SYBR Green I/PI viability assay (drug library screen, plate reader). As to conditions: for activity against stationary phase B. burgdorferi (in words): screen at 50 μM, 7 days; for viability at 50 µM: Borreliella burgdorferi, 168 h; for Residual viable cells (SYBR/PI): Table 3. On the procedure: (§1) Borrelia burgdorferi strain B31 (ATCC35210) was received from the […] (Manassas, Va., USA) and was grown in BSK-H medium (HiMedia Laboratories, Mumbai, India) and 6% rabbit serum (Sigma Aldrich, St. Louis, Mo., USA). The culture was filtered and sterilized using a […] and incubated in capped sterile 50 mL conical tubes (BD Biosciences, CA, USA) at 33° C. for 7 days without antibiotics until the culture reached stationary phase.
(§2) The cultures were examined using a Nikon Eclipse E800 microscope with differential interference contrast and epifluorescent illumination. The pictures were captured using a SPOT slider color camera. A SYBR Green I/PI assay was used to assess the viability of the bacterial sample using the ratio of live to dead B. burgdorferi (measured with green and red fluorescence, respectively) as measured by a plate reader.
(§3) Briefly, prediluted drug stock (10 μL) was added to 7 day old stationary phase B. burgdorferi culture (90 μL) to achieve a 50 μM final drug concentration per well. The plates were then incubated at 33° C. for 7 days at which point the SYBR/PI rapid viability assay was performed in a fluorescence plate reader to obtain the green-red fluorescence ratio.

For series [2] the test system is unchanged. Briefly: Residual viable B. burgdorferi by epifluorescence microscope counting after drug exposure. The conditions noted are these: for viability at 50 µM: Borreliella burgdorferi, 168 h, read-out: Residual viable cells (Microscopy). As for the experimental part: as §1, §2, §3
Where [3] appears, read: read-out: Residual viable cells (SYBR Green/PI).
The mark [4] stands for this setting: read-out: Residual viable cells (SYBR/PI).
Setting [5] is: read-out: Residual viable cells (SYBR Green/PI), Table 1, drugs 50 μM, 7 day old stationary phase cells treated for 7 days.
Setting [6] is: read-out: Residual viable cells (SYBR/PI), Table 3, drugs 50 μM, 7-day old stationary phase cells treated for 7 days.
[7] abbreviates: Table 1, drugs 50 μM, 7 day old stationary phase cells treated for 7 days.
[8] abbreviates: drugs 50 μM, 7-day old stationary phase cells treated for 7 days.

Counter-ions that a name gives are not always drawn. Like-named read-outs stand apart in the source and are kept apart here. Bridge positions count the residues as written; N and C are the ends. Square brackets hold non-standard residues; d marks the D form. Peptide text beside a SMILES is read from it. * marks the point of attachment. Ileψ(thiazoline)Cys = CC[C@H](C)[C@H](N)C1=N[C@H](C(=O)*)CS1; dOrn = NCCC[C@@H](N)C(=O)O

`CN(C)c1ccc2nc3ccc(=[N+](C)C)cc-3sc2c1` [Methylene blue hydrate]: the “activity against stationary phase B. burgdorferi (in words)” value in series [1] is “good activity”. The viability at 50 µM in series [2] came to 40%. Moreover, the “activity against B. burgdorferi persisters by careful microscopy analysis (in words)” value in series [2] (coloured drugs verified by microscopy) is “high activity”. For `c1ccc2c(c1)Nc1ccccc1S2` [Phenothiazine], the viability at 50 µM came to 54% in series [1] (setting [3]), 54% in series [1] (setting [4]) and 53% in series [2]. As to `C[C@@H]1CC[C@H]2[C@@H](C)C(=O)O[C@@H]3O[C@@]4(C)CC[C@@H]1[C@]32OO4` [Artemesinin], the viability at 50 µM in series [1] (setting [5]) stood at 49%; in series [1] (setting [6]), 49%; in series [2], 45%. Further, the “activity against stationary phase B. burgdorferi (in words)” value in series [1] was “good activity”.

In the case of `Nc1nc2c(ncn2CCC(CO)CO)c(=O)[nH]1` [Penciclovir], the viability at 50 µM in series [1] (setting [5]) was 64%; in series [1] (setting [6]) it was 64%; in series [2], 60%. Regarding Penimepicycline, the “Residual viable cells (Microscopy)” value in series [2] is given as 60%. Consider `CN1CCCN=C1/C=C/c1cccc(O)c1` [Oxantel], for which the viability at 50 µM in series [1] (setting [5]) was 44%; in series [1] (setting [6]), 44%; in series [2] it was 63%.

With `CO[C@H]1/C=C/O[C@@]2(C)Oc3c(C)c([O-])c4c(O)c(cc(O)c4c3C2=O)NC(=O)/C(C)=C\C=C\[C@H](C)[C@H](O)[C@@H](C)[C@@H](O)[C@@H](C)[C@H](OC(C)=O)[C@@H]1C.[Na+]` [Rifamycin SV], the “Residual viable cells (Microscopy)” value in series [2] is 60%. For `C[C@H]1[C@H](NC(=O)/C(=N\OC(C)(C)C(=O)O)c2csc(N)n2)C(=O)N1S(=O)(=O)O` [Aztreonam], the values for the viability at 50 µM in series [1] (setting [5]), in series [1] (setting [6]) and in series [2] were 55%, 55% and 50%, respectively. For `c1ccc(-c2ccc(C(c3ccccc3)n3ccnc3)cc2)cc1` (centres unmarked) [Bifonazole], the viability at 50 µM in series [1] (setting [5]) stood at 48%; in series [1] (setting [6]) it was 48%; in series [2], 50%. Further, the “activity against stationary phase B. burgdorferi (in words)” value in series [1] was “reasonable activity”. For `CO/N=C(\C(=O)N[C@@H]1C(=O)N2C(C(=O)O)=C(COC(N)=O)CS[C@H]12)c1ccco1` [Cefuroxime], the results for the viability at 50 µM in series [1] (setting [5]) and in series [2] were 43% and 49%, respectively.

Regarding `O=C(O)c1cn(-c2ccc(F)cc2)c2cc(N3CCNCC3)c(F)cc2c1=O` [Sarafloxacin, Sarafloxacin HCl], the viability at 50 µM in series [1] (setting [5]) turned out to be 47%; in series [1] (setting [6]), 47%; in series [2] it was 50%. For the compound `COc1ccc(C[C@H](N)C(=O)N[C@H]2[C@@H](O)[C@H](n3cnc4c(N(C)C)ncnc43)O[C@@H]2CO)cc1` [Puromycin], the values for the viability at 50 µM in series [1] (setting [5]), in series [1] (setting [6]) and in series [2] were 65%, 65% and 48%, respectively.

On to `C[C@H]1c2cccc(O)c2C(=O)C2=C(O)[C@]3(O)C(=O)C(C(N)=O)=C(O)[C@@H](N(C)C)[C@@H]3[C@@H](O)[C@@H]21` [Doxycycline], for which the viability at 50 µM came out at 67% in series [1] (setting [5]), 67% in series [1] (setting [6]) and 75% in series [2]. As for “Potassium antimonyl tartrate trihydrate [Tartar emetic]”, in series [1] (setting [7]), the “Residual viable cells (SYBR Green/PI)” value amounted to 42%. Moreover, the “Residual viable cells (SYBR/PI)” value in series [1] (setting [8]) turned out to be 42%. Further, the “Residual viable cells (Microscopy)” value is on record as 45% in series [2] (setting [7]) and 45% in series [2] (Table 3, drugs 50 μM, 7-day old stationary phase cells treated for 7 days). In the case of `CC[C@H](C)[C@H](N)C1=N[C@H](C(=O)N[C@@H](CC(C)C)C(=O)N[C@H](CCC(=O)O)C(=O)N[C@H](C(=O)N[C@H]2CCCCNC(=O)[C@H](CC(N)=O)NC(=O)[C@@H](CC(=O)O)NC(=O)[C@H](Cc3cnc[nH]3)NC(=O)[C@@H](Cc3ccccc3)NC(=O)[C@H]([C@@H](C)CC)NC(=O)[C@@H](CCCN)NC2=O)[C@@H](C)CC)CS1` [Bacitracin, Bacitracin zinc salt] ({Ileψ(thiazoline)Cys}-L[dE]IK[dOrn]I[dF]H[dD]N; lactam 4-C), the viability at 50 µM in series [1] (setting [5]) was 47%; in series [1] (setting [6]) it was 47%; in series [2] it was 60%. In the case of `CCCCCl` [Butyl chloride (1-Chlorobutane), 1-Chlorobutane], the viability at 50 µM in series [1] (setting [4]) was determined as 41%. For the same compound, in series [1], the “activity against stationary phase B. burgdorferi (in words)” value was “very high activities”. For `O=C(Nc1ccc(C(=O)O)c(O)c1)c1ccccc1` [Benzoylpas, 4-Benzamido salicylic acid, calcium salt], the viability at 50 µM in series [1] (setting [5]) and in series [1] (setting [6]) was 55% in each case. Turning to `COc1ccc(C[C@H]2NC[C@H](O)[C@H]2OC(C)=O)cc1` [Anisomycin], the “Residual viable cells (SYBR/PI)” value in series [1] (setting [8]) is recorded as 68%. In the case of `Cc1ccnc2c1NC(=O)c1cccnc1N2C1CC1` [Nevirapine], the viability at 50 µM in series [1] (setting [5]) and in series [1] (setting [6]) was 51% throughout. In series [1], the “activity against stationary phase B. burgdorferi (in words)” value is on record as “good activity”. Take `CC(=O)OCC1=C(C(=O)O)N2C(=O)[C@@H](NC(=O)CCC[C@@H](N)C(=O)O)[C@H]2SC1` [Cephalosporin C]: in series [1] (setting [8]), the “Residual viable cells (SYBR/PI)” value is 58%. For `NC(=O)c1cc[n+](CC2=C(C(=O)O)N3C(=O)[C@@H](NC(=O)[C@@H](c4ccccc4)S(=O)(=O)[O-])[C@H]3SC2)cc1` [Cefsulodin], the viability at 50 µM in series [1] (setting [5]) and in series [1] (setting [6]) was 60% throughout. Regarding `Nc1ccc([As](=O)(O)O)cc1` [p-Arsanilic acid], the “Residual viable cells (SYBR/PI)” value in series [1] (setting [8]) is on record as 49%.

On to `N#CC(c1ccc(Cl)cc1)c1c(Cl)cc(-n2ncc(=O)[nH]c2=O)cc1Cl` (centres unmarked) [Diclazuril], for which the viability at 50 µM in series [1] (setting [6]) came out at 63%.

Take `Clc1ccc(CCC(Cn2ccnc2)Sc2c(Cl)cccc2Cl)cc1` (centres unmarked) [Butoconazole nitrate]: in series [1] (setting [6]), the viability at 50 µM stood at 74%. The same measure, in the same setting: then `NS(=O)(=O)c1ccc(C(=O)O)cc1` [Carzenide (4-Carboxybenzenesulfonamide), 4-Carboxybenzenesulfonamide], with 59%; and `C=N[C@@H](C(=O)N[C@@H]1C(=O)N2[C@@H]1SC(C)(C)[C@@H]2C(=O)O)c1ccccc1` [Metampicillin], with 57%.

As to `O=C(O)CCNC(=O)c1ccccc1` [Betamipron (n-benzoyl-b-alanine), n-benzoyl-b-alanine], in series [1] (setting [6]), the viability at 50 µM amounted to 68%. On the same count and under the same terms, with `CC(=O)Nc1ccc(/C=N/NC(N)=S)cc1` [Thiacetazone (Amithiozone), Amithiozone] the figure was 73%; with `CC(N)C12CC3CC(CC(C3)C1)C2` (centres unmarked) [Rimantadine], 68%; with `NC[C@@H]1CC[C@@H](N)[C@@H](O[C@H]2[C@H](O)[C@@H](O[C@H]3O[C@H](CO)[C@@H](O)[C@H](N)[C@H]3O)[C@H](N)C[C@@H]2N)O1` [Dibekacin], 70%.

With `NC1CCN(c2nc3c(cc2F)c(=O)c(C(=O)O)cn3-c2ccc(F)cc2F)C1` (centres unmarked) [Tosufloxacin], the viability at 50 µM in series [1] (setting [5]) and in series [1] (setting [6]) was 57% each time. Turning to `Nc1nc(O)c2ncn(COC(CO)CO)c2n1` [Ganciclovir], the viability at 50 µM in series [1] (setting [5]) and in series [1] (setting [6]) was 53% each time. As to `Oc1ccc(Cl)c2cccnc12` [Cloxyquin (5-chloro-8-hydroxy-quinoline), 5-chloro-8-hydroxy-quinoline], the viability at 50 µM in series [1] (setting [6]) turned out to be 60%.

For the compound `CS(=O)(=O)c1ccc([C@@H](O)[C@@H](CO)NC(=O)C(Cl)Cl)cc1` [Thiamphenicol], the viability at 50 µM in series [1] (setting [6]) turned out to be 57%. The same measure, in the same setting: with `Cc1cc(C(C#N)c2ccc(Cl)cc2)c(Cl)cc1NC(=O)c1cc(I)cc(I)c1O` (centres unmarked) [Closantel] the figure was 56%.

As for `Cc1cn([C@H]2C=C[C@@H](CO)O2)c(=O)[nH]c1=O` [2′,3′-Didehydro-3′-Deoxythymidine], the viability at 50 µM in series [1] (setting [6]) amounted to 65%.

For `O=c1[nH]c(=O)n([C@H]2C[C@H](O)[C@@H](CO)O2)cc1F` [Floxuridine, 5-fluorodeoxyuridine], the viability at 50 µM in series [1] (setting [5]) and in series [1] (setting [6]) was 61% throughout.

`CCC(=O)O[C@@H]1CC(=O)O[C@H](C)C/C=C/C=C/[C@H](O)[C@H](C)C[C@H](CC=O)[C@H](O[C@@H]2O[C@H](C)[C@@H](O[C@H]3C[C@@](C)(O)[C@@H](OC(=O)CC)[C@H](C)O3)[C@H](N(C)C)[C@H]2O)[C@H]1OC` [Midecamycin]: in series [1] (setting [6]), the viability at 50 µM amounted to 54%. On the same count and under the same terms, with `Nc1cc(C(Cl)=C(Cl)Cl)c(S(N)(=O)=O)cc1S(N)(=O)=O` [Clorsulon] the figure was 71%; with `COC(=O)N/N=C/c1c[n+]([O-])c2ccccc2[n+]1[O-]` [Carbadox], 69%. Still for that read-out and setting: then `CC(=O)OCC(CCn1cnc2cnc(N)nc21)COC(C)=O` [Famciclovir], with 68%. `S=C=Nc1ccc(N=C=S)cc1` [Bitoscanate]: the viability at 50 µM in series [1] (setting [3]) and in series [1] (setting [4]) was 46% each time. For `CS(=O)(=O)c1ccc([C@@H](O)[C@@H](CF)NC(=O)C(Cl)Cl)cc1` [Florfenicol], the viability at 50 µM in series [1] (setting [6]) was 53%.
